In patent US12318449B2 (Rutgers, The State University of New Jersey, priority 2012, dated 2025):

Columns and labels:
[1] = test system: C8161 human melanoma cells; experiment: Cell cycle analysis (propidium iodide flow cytometry); type: cell-based; details: for Sub G1: 8 Gy, 25 uM riluzole, average of 3 experiments
Description: Cell pellets were fixed by drop-wise addition of ice-cold 70% ethanol and incubated overnight at 4° C. Fixed cells were washed twice with ice-cold PBS and resuspended in […] PBS. […] The experiment was repeated 3 times.

[2] = test system: C8161 hGRM1-positive human melanoma cells; details: riluzole plus irradiation (2 or 4 Gy) compared with irradiation alone
Description: Both sets of cells were irradiated at 2 or 4 Gy. Lysates were made at 24, 48, or 72 hours after irradiation. Protein lysates were prepared by washing cells with PBS, adding extraction buffer [50 mmol/L Tris, 150 mmol/L NaCl, 1 mmol/L EDTA (pH 8.0)], 1% NP40, 5% glycerol, 1 mmol/L Dithiothreitol, complete protease inhibitor cocktail (Roche), and phosphatase inhibitors I and II (Sigma). The samples were resolved in 10% gels (Bio-Rad), after which they were transferred onto nitrocellulose membranes. Membranes were blocked with 5% milk and 1% bovine serum albumin and then probed with antibodies against PARP and cleaved caspase-3. The same blot was probed with alpha-tubulin to show equal loading.
Cells were either treated with IR at 2 Gy (2) or 4 GY (4) or not treated (0). Lysates were made immediately after IR or at 24 hours after IR and probed with anti-PARP and anticleaved PARP antibodies to assess apoptotic cells. The same blot was probed with a-tubulin to show equal loading.

C8161 xenografts [3] = experiment: Murine xenograft model, cleaved caspase-3 immunohistochemistry; type: in vivo, nude mice
Description: hGRM-positive C8161 cells (1×10^6) were injected into the flanks of 6-week-old nude mice (Taconic). […] At 24, 48, and 72 hours after the second dose of irradiation, mice in each group were sacrificed and tumor samples were removed. Half of the samples were snap-frozen for further molecular studies, and the other half was fixed in formalin for histologic analysis. The antibody to activated caspase-3 was utilized to visualize apoptotic cells. The average number of apoptotic cells per tumor was calculated by counting the apoptotic cells in 10 random highpowered fields.
Cleaved caspase-3 immunohistochemistry. Immunodeficient nude mice were purchased from Taconic. C8161 cells were injected into flanks bilaterally at 10^6 cells per site. Tumor size was measured with a vernier caliper. When tumor volumes reached 6 to 10 mm^3 the mice were randomly grouped into various treatments. Each treatment group consisted of 10 mice. […] At 24, 48, and 72 hours after the second dose of irradiation, mice in each group were sacrificed and tumor samples were removed. Half of the samples were snap-frozen for further molecular studies, and the other half was fixed in formalin for histologic analysis. The antibody to activated caspase-3 was utilized to visualize apoptotic cells.

LN229 cells = experiment: ROS measurement by flow cytometry (2′,7′-dichlorodihydrofluorescein diacetate); type: cell-based; details: 10 uM riluzole for various time periods versus vehicle
Description: (§1) The cells were incubated with 2′,7′-dichlorodihydrofluorescein diacetate (Sigma) for 20 min at 37 deg.

U87MG cells = experiment: as above; type: cell-based; details: 10 uM riluzole for various time periods versus vehicle
Description: as §1

U87MG glioma cells = experiment: Western immunoblot for cleaved PARP; type: cell-based; details: riluzole 10, 25 or 50 μM for 4 days versus NT or vehicle
C8161 xenografts [4] = test system: C8161 xenografts
Description: Immunodeficient nude mice were purchased from Taconic. C8161 cells were injected into flanks bilaterally at 10^6 cells per site.

LN229 cell line = experiment: Western immunoblot for cleaved PARP; type: cell-based; details: experiments repeated as for U87MG
D3-mGRM1 cells = experiment: Immunofluorescence for 53BP1 and γ-H2AX foci in apoptosis-deficient cells; type: cell-based, mouse; details: treated for various time points up to 24 hours
From the text: (§2) These treated cells were stained with γ-H2AX and 53BP1, both known to localize at sites of DNA double stranded breaks.

D3-vec cells = experiment: as above; type: cell-based, mouse; details: empty vector controls; treated for various time points up to 24 hours
From the text: as §2

[5] = test system: hGRM1-positive C8161 human melanoma cells; details: riluzole for 24 hours, then ionizing radiation; PE=12%
Description: (§3) hGRM1-expressing C8161 [wild type (wt) for RAS and BRAF] and UACC903 (wt for RAS, mutated B-RAF, V600E) human melanoma cell line and hGRM1-negative melanoma cell line UACC930 (wt for RAS, mutated B-RAF, V600E), were obtained from Dr. Mary J. C. Hendrix (Children's Memorial Research Center, Chicago, IL) and Dr. Jeffrey M. Trent (Translational Genomics Research Center, Phoenix, AZ), respectively. Cells were cultured in monolayer at 37° C. in a 5% CO2 humidified incubator, in RPMI (InVitrogen) supplemented with 10% fetal bovine serum (Sigma).
(§4) Cells were trypsinized for retrieval and plated on 100-mm plates and allowed to attach overnight for 20 hours. […] Cells were irradiated by a Gamma Cell 40 Exactor (MDS Nordion) irradiator and then incubated overnight (20 hours). Drug was aspirated and culture media replaced at 20 hours. Plates were then monitored for 10 to 21 days and stained with crystal violet for visual counting. Colonies which contained more than 50 cells were scored as clonogenic survivors.
(§5) All clonogenic assays and cell cycle analyses experiments were repeated 3 times and the triplicate results are shown.

[6] = test system: hGRM1-positive UACC903 human melanoma cells; details: riluzole for 24 hours, then ionizing radiation; PE=19%
Description: as §3, §4, §5

U118MG cell line = experiment: Western immunoblot for cleaved PARP; type: cell-based; details: experiments repeated as for U87MG
glioma cells = experiment: γ-H2AX Western blot and γ-H2AX/53BP1 immunofluorescence; type: cell-based

For `C=C1C[C@@H]2COC(=O)[C@]2(Cc2ccc3ccccc3c2)C1` [BAY 36-7620], the G2/M synchronization ([1]; treatment of C8161 cells with the compound) was “no G2/M synchronization”.
For `Nc1nc2ccc(OC(F)(F)F)cc2s1` [Riluzole, riluzole], the “levels of cleaved PARP” value [2] was “further augmented levels of cleaved PARP”, the “number of apoptotic tumor cells (immunohistochemistry)” value (C8161 xenografts [3]; riluzole 10 mg/kg oral gavage plus 2 x 4 Gy irradiation versus irradiation alone or control groups, P<0.001) was “significant increase” and the “number of apoptotic tumor cells (immunohistochemistry)” value (C8161 xenografts [3]; riluzole plus irradiation versus riluzole alone, 24- and 48-hour time points, P<0.01) was “significant difference”. For the same compound, the “ROS (oxidation of fluorochrome fluorescence)” value (LN229 cells) was “enhanced ROS”, the “ROS (oxidation of fluorochrome fluorescence)” value (U87MG cells) was “enhanced ROS” and the “Sub G1” value ([1]; Radiation followed by Riluzole) was 24.91. For the same compound, the “Sub G1” value ([1]; Riluzole followed by Radiation) was 3.59, the G2/M fraction ([1]; cells treated with riluzole prior to irradiation) was “clear spike in the G2/M fraction” and the G2/M fraction ([1]; reverse sequence (irradiation before riluzole)) was “no such effect”. The “levels of cleaved PARP” value (U87MG glioma cells) was “higher levels of cleaved PARP”, the “effect of the combination on growth of xenografts” value (C8161 xenografts [4]; riluzole (10 mg/kg) plus IR, 25 days of treatment) was “at least an additive effect” and the “DNA damage as measured by foci of gH2AX on immunohistochemistry” value (C8161 xenografts [4]; xenograft harvests, riluzole plus irradiation) was “markedly enhanced DNA damage”. The “levels of cleaved PARP” value (LN229 cell line) was “identical results”, the “53BP1 and γ-H2AX foci (DNA double stranded breaks)” value (D3-mGRM1 cells) was “induction of clear nuclear 53BP1 and γ-H2AX foci” and the “53BP1 and γ-H2AX foci (DNA double stranded breaks)” value (D3-vec cells) was “not vector controls”. The “dose-modifying factor (DMF)” value [5] was 1.48, the “dose-modifying factor (DMF)” value [6] was 1.30 and the “levels of cleaved PARP” value (U118MG cell line) was “identical results”. The “co-localization of γ-H2AX and 53BP1 (immunofluorescence)” value (glioma cells) was “Co-localization was demonstrated” and the “γ-H2AX Western blot (DNA damage)” value (glioma cells; cell lysates) was “caused DNA damage”.
